{
  "source": "patent US9463174B2",
  "about": "“Pharmaceutical composition for the treatment of type-1 diabetes” (priority 2008, dated 2016)",
  "key": {"[1]": {"system": "8.3-TCR NOD mice", "assay": "Prevention of diabetes in transgenic 8.3-TCR NOD mice", "type": "in vivo", "from_the_text": "TCR NOD mice were used to investigate the potential role of GABA on the T-cell function. The 8.3-TCR NOD mouse is a severe T1D mouse model (Amrani A et al, 1999 Clin Invest. 103(8):1201-9) and developed diabetic hyperglycemia at about age of 11 wks (FIG. 8A). Autoimmune diabetes in NOD mice results from destruction of pancreatic b-cells by T lymphocytes. The CD8+ cytotoxic T lymphocytes is thought to be the initial beta-cell insult in diabetes in which the initiation is a Fas-dependent process (Amrani A et al, 1999 Clin Invest. 103(8):1201-9). The 8.3-TCR NOD mouse monoclonal T-cells bearing a T-cell receptor (8.3-TCR) that is representative of TCRs used by CD8+ cytotoxic T lymphocytes propagated from the earliest insulitic lesions of NOD mice.\nGAD65 has long been considered as a major antigen initiating the pathogenesis in T1D. Given that the protective effects of GABA in the development of diabetes in the diabetic animal models, I proposed that as the rate limiting enzyme of GABA synthesis, GAD has important role in maintaining islet function. To determine if treatment of GABA has effects on the expression levels of GAD65, we performed pancreatic GAD staining in the TCR transgenic NOD mice.\nThe techniques used for the in vivo and in vitro studies in this embodiment of the disclosure are also described. CD1 mice (Charles River Laboratories, St Constant, Canada), NOD mice and transgenic TCR NOD mice (Jackson Laboratory, USA) were housed under a controlled temperature and a 12-h light/12-h dark cycle in the St. Michael's Hospital Animal facility with free access to food (normal rodent chow) and water, except where noted. All procedures were conducted according to protocols and guidelines approved by the Canadian Council of Animal Care and the St. Michael's Hospital Animal Care committee. Mice were treated with GABA by daily intraperitoneal (i.p.) injection of 20·g GABA per mouse to reach ˜200 μM circulation concentration and PBS as control. The daily treatment is continuously conducted during 60-day experimental period. One wk after the GABA and PBS treatment, diabetes was induced in both groups by i.p.-injection of low-dose streptozotocin (STZ, Sigma Chemical Co., St. Louis, Mo. 40 mg/kg body weight) for 5 consecutive days. The development of hyperglycemia was monitored by measuring blood glucose from the tail vein every third day following STZ injections using an Ascensia ELITE® XL glucose meter. For some studies, overtly diabetic mice induced by STZ and without GABA treatment were divided into two groups: one group started receiving daily i.p. injection of 20·g GABA whereas other group received only PBS. The treatment was continued for 75 days. The handling of the NOD mice were similar to those CD1 mice except the STZ injection. The NOD mice have a susceptibility to spontaneous development of autoimmune T1D. The TCR transgenic 8.3-NOD mice have a markedly accelerated disease (J. Vergdaguer et al, 1997 J Exp Med. 186(10):1663-76).\nFollowing dewaxing, […] as described previously (Wang Q, Brubaker P L 2002 Diabetologia 45:1263-1273), endogenous peroxidase activity was quenched by incubating sections in 0.3% H2O2 in water for 30 min and antigen retrieval was performed by heating slides in 10 mM sodium citrate buffer, pH 6.0, at ˜70° C. for 30 min. […]"}, "[2]": {"system": "INS-1 cells", "assay": "Cell proliferation assay by 3H-thymidine incorporation", "type": "cell-based", "experimental": "INS-1 cells were grown to 80-85% confluence in 12-well plates, serum-starved for 24 h and then treated with GABA at various concentrations in the presence of 3 mmol/l glucose. Some cells were also pre-incubated with GABA receptor antagonist for 20 h prior before the treatment. DNA synthesis was measured by incubating cells with 37 kBq/ml 3H-methylthymidine (specific activity: 3000 GBq/mmol; Amersham Pharmacia Biotech) for 4 h. Cells were then washed twice in ice-cold PBS and incubated for 30 min in 1 ml of 5% trichloroacetic acid on ice to precipitate the DNA. The liquid layer was removed by aspiration and 250 μl of 0.1 mol/l sodium hydroxide was added to the cells for 30 min at room temperature. During this time the container was gently shaken. The solubilised material was then transferred to 5 ml of scintillant, and radioactive counts were determined by liquid scintillation counting."}},
  "note": "“Also recorded” adds a separate entry of the source.",
  "data": [
    {"smiles": "NCCCC(=O)O", "note": "[GABA, gamma-aminobutyric acid]", "values": [
      {"measurement": "alpha-cell mass", "setting": "[1]; GABA-treated TCR-NOD mice", "value": "largely reserved"},
      {"measurement": "islet mass / beta-cell mass", "setting": "[1]; GABA-treated TCR-NOD mice", "value": "largely reserved"},
      {"measurement": "pancreatic insulin and GAD65/67 staining", "setting": "[1]; TCR transgenic NOD mice", "value": "largely reserved the islet beta-cell mass and the intact association with GAD65; also recorded: reserves insulin and GAD65/67 content"},
      {"measurement": "development of diabetic hyperglycemia", "setting": "[1]; daily GABA vs saline-treated", "value": "completely prevented the development of diabetic hyperglycemia; also recorded: completely prevents diabetic hyperglycemia"},
      {"measurement": "lymphocytes (T-cell) infiltration in pancreatic islets", "setting": "[1]; vs PBS-treated", "value": "dramatically blocked; also recorded: obviously diminished"},
      {"measurement": "3H-thymidine incorporation into INS-1 cells", "setting": "[2]; GABA 100 mM, time-dependent manner", "value": "increased the ^3H-thymidine incorporation"},
      {"measurement": "INS-1 cell proliferation (3H-thymidine incorporation)", "setting": "[2]; various concentrations, 3 mmol/l glucose", "value": "dose-dependently increased INS-1 cell proliferation"}
    ]}
  ]
}
